The half-life is the time needed for the level to fall by half in the phase considered. High values mean slow decline, low ones rapid decline.

Data set [1] in a line: Half-life in human at 10 mg/kg, po BID administered for 6 weeks measured weekly for 15 weeks by GC/MS analysis. Type of data set: ADME, organism-based. Conditions: in vivo.
Data set [2] deals with Delta-type opioid receptor (Homo sapiens, UniProt P41143). Nature of the data set: Inhibition of delta-type opioid receptor receptor (unknown origin).
In the next data set the target is Histamine H3 receptor (Homo sapiens, UniProt Q9Y5N1). Briefly: Inhibition of histamine H3 receptor (unknown origin).
Data set [3] deals with T1, Steroid 17-alpha-hydroxylase/17,20 lyase (Rattus norvegicus, UniProt P11715).
T1 sequence (P11715 whole entry): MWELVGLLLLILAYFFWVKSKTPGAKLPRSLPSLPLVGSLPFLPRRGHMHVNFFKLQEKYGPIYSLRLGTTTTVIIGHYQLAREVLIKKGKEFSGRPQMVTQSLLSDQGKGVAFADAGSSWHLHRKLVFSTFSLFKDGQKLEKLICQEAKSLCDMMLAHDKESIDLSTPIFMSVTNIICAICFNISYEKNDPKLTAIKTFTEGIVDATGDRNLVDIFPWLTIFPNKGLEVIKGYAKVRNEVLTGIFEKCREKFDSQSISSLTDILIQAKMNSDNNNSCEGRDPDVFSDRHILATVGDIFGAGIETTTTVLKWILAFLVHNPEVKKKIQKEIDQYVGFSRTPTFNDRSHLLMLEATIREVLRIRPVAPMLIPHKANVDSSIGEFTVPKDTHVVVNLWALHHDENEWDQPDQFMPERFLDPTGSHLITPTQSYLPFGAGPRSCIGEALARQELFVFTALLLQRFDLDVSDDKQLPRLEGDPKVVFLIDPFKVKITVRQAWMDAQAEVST
Briefly: Mixed type inhibition of CYP17 in Sprague-Dawley rat testis microsomes assessed as reduction in 17alpha-Hydroxylase activity in presence of NADPH-generating system incubated for 2 mins by Lineweaver-Burk plot analysis. In kind it is ADME.

Data set [4] can be described thus: Elimination half-life in human at 20 mg using aerosol spray measured for 6 weeks. Type of data set: ADME. Conditions: in vivo, inhaled_or_intranasal, 1008 h.
In data set [5] the target is T2, 5-hydroxytryptamine receptor 2C (Homo sapiens, UniProt P28335).
T2 sequence (P28335 whole entry): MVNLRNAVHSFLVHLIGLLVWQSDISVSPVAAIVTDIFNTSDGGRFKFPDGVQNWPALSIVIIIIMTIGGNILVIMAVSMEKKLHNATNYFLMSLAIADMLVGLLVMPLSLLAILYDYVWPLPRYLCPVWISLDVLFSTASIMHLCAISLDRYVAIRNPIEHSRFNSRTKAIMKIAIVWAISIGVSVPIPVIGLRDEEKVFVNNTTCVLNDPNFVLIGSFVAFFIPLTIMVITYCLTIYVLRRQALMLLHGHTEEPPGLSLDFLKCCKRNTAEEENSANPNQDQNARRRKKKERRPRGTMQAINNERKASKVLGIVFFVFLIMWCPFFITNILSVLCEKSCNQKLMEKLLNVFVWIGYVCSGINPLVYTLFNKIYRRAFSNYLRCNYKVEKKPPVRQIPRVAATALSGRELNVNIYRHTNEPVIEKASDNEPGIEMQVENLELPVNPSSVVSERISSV
Nature of the data set: Inhibition of 5-HT2C (unknown origin).

The target of a further data set is T3, Cytochrome P450 1A2 (Homo sapiens, UniProt P05177).
T3 sequence (P05177 whole entry): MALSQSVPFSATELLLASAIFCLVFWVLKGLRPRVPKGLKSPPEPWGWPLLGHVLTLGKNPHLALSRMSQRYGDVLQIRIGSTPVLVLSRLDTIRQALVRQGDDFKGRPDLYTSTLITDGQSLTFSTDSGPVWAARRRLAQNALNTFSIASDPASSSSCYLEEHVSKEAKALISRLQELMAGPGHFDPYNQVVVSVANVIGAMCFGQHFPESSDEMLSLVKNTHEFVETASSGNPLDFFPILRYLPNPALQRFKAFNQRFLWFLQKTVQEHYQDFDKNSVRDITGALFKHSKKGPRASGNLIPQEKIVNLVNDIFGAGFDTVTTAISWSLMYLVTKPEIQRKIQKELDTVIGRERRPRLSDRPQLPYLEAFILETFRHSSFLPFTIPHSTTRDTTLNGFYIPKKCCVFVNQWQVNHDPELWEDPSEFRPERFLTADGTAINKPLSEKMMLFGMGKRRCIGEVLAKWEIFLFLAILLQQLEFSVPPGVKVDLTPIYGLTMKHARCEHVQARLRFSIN
Nature of the data set: Competitive inhibition of human recombinant CYP1A2 using 7-Ethoxyresorufin as substrate by Lineweaver-Burk plot analysis. In kind it is ADME. Conditions: read-out: Ki(app).

For data set [6], the target named is T4, Alpha-2B adrenergic receptor (Homo sapiens, UniProt P18089).
T4 sequence (P18089 whole entry): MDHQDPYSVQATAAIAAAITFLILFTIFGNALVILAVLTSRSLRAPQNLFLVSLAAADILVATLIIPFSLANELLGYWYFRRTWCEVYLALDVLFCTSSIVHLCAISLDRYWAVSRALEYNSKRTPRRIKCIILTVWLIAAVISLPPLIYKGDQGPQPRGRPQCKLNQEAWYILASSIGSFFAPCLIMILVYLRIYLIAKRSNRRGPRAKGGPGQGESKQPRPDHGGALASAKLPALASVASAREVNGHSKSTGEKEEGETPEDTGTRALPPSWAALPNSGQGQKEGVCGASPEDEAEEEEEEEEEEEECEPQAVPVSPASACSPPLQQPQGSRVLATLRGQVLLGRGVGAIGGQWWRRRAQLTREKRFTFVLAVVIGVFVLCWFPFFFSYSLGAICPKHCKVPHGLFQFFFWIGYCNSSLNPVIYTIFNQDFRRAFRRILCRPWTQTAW
Briefly: Inhibition of alpha2B receptor (unknown origin).

Another data set has as its target T5, Cytochrome P450 2B6 (Homo sapiens, UniProt P20813).
T5 sequence (P20813 whole entry): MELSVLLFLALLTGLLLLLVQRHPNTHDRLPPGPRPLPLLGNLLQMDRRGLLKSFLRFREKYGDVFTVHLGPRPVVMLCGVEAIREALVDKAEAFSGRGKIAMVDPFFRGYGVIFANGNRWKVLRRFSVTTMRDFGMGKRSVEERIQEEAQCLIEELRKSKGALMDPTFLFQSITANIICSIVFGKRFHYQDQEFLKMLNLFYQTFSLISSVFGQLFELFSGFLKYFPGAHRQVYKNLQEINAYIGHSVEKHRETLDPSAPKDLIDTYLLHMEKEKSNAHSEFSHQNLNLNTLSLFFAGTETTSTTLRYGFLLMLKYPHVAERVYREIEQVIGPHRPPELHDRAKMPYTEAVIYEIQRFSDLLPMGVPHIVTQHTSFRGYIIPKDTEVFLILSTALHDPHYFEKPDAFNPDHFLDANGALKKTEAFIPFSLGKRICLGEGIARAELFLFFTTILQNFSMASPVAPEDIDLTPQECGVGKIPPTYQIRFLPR
Briefly: Mixed type inhibition of human recombinant CYP2B6 expressed in baculovirus-infected insect cells using […] as substrate preincubated for 5 mins followed by NADPH-generating system addition by Lineweaver-Burk plot analysis. Type of data set: ADME.

The nature of the next data set: clinical. Conditions: human, in vivo, other: aerosol spray, 20 mg.

Chain of Histamine H3 receptor (Q9Y5N1 whole entry): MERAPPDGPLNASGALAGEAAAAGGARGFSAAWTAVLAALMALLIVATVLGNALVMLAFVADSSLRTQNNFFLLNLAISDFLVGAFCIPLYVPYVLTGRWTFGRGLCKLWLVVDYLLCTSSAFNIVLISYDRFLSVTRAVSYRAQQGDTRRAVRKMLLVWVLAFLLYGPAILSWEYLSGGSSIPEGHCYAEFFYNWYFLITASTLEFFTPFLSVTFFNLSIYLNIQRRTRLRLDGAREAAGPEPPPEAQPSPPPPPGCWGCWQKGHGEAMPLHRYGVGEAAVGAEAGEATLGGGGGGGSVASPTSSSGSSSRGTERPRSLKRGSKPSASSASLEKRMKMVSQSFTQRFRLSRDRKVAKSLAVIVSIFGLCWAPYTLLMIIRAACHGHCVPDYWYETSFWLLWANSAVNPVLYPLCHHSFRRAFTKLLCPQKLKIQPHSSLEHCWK
Chain of Delta-type opioid receptor (P41143 whole entry): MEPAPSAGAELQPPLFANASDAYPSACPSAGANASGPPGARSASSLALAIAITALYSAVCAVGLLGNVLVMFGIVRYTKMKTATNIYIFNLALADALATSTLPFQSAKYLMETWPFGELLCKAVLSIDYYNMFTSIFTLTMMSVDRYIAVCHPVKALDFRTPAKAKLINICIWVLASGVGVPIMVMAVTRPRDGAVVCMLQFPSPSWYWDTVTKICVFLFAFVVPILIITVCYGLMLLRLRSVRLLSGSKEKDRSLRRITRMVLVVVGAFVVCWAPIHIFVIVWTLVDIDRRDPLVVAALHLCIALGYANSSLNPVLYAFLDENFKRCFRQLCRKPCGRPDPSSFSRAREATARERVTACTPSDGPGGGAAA
Description for clinical: Elimination rate constant in human at 20 mg using aerosol spray measured for 6 weeks

As to `C=C(C)[C@@H]1CCC(C)=C[C@H]1c1c(O)cc(CCCCC)cc1O` [CANNABIDIOL], the half-life in data set [1] was 2880 min. The Ki came to 6.4 µM in data set [2]; 3.1 µM at Histamine H3 receptor; 124 µM in data set [3]; 1100 nM in [5]; 2690 nM at Cytochrome P450 1A2; 3.2 µM in [6]. For the same compound, the Ki on Cytochrome P450 2B6 amounted to 690 nM. In addition, the “beta t1/2” value in data set [4] worked out at 2 h. The compound further showed a k el at 1008 h in “clinical” of 0.000119 s⁻¹.

The values are drawn from ChEMBL document CHEMBL4680278 (J Med Chem, 2020).
